From patent US8080657B2, “Compounds of reverse turn mimetics and the use thereof” (Choongwae Pharma Corporation, priority 2008, dated 2011)
Where two headings read alike, the source gives them in different places.

What was measured:
MV-4-11 cells = assay: Cell growth inhibition assay on AML cancer cells (CellTiter 96); assay type: cell-based; conditions: Homo sapiens, MV4-11
Method: The lower GI50 value means the higher inhibition activity.
Cell Growth Inhibition Activity on AML Cancer Cells (Cell Growth Inhibition Assay)
Cell growth Inhibition assay was performed to investigate the rate of inhibition of cell proliferation by the test compounds. MV-4-11 (human, Acute Myeloid Leukemia cell line) cells were cultured in Iscove's modified Dulbecco's medium (IMDM) including 10% fetal bovine serum (FBS), 1× penicillin/streptomycin (10,000 units/ml Penicillin, […] Streptomycin in 0.85% NaCl). MV-4-11 cells were harvested with IMDM medium and 5×10^4 cells/well were transferred to each well of 96 well culture plates (Nunc, #167008). The test compounds were treated with the serial dilution and duplicated for each concentration. For the serial dilution, the test compounds were repeatedly diluted with the same volume of media onto 96-well assay block (costar, #3956). After the dilution, each compound was added to each well. The background absorbance was also measured during the test compounds treatment by adding the IMDM media in replacement of test compound to the negative control plate. The plates were incubated for 3 days (72 hours) at 37° C. in the humidified incubator containing 5% CO2. On the last day, 20 μL of CellTiter 96 Aqueous One Solution (Promega #G3581) was added to the culture in each well and the plates were incubated for a few hours at 37° C. in the humidified incubator containing 5% CO2. After the incubation, the absorbance of each cell was measured at 490 nm using an EnVision (Perkinelmer, USA). The GI50 values were calculated using a Prism 3.0 program.

[1] = molecular target: T1, cDNA-expressed human hepatic CYP3A4 (Homo sapiens, UniProt P08684); assay: P450 CYP3A4 inhibitory activity screening (BFC substrate, fluorescence); assay type: biochemical
T1 construct: purchased BD Gentest 456202
Method: P450 CYP3A4 Inhibitory Activity Screening
Assay was conducted in a 200 μL volume in 96-well microtiter plates using cDNA-expressed human hepatic CYP3A4 (supersome, BD Gentest™ #456202). 7-Benzyloxy-4-trifluoromethyl-coumarin (BFC) was used as a substrate for CYP3A4. Test articles and substrate BFC were dissolved in 100% acetonitrile. The final volume of acetonitrile in the incubation mixture was less than 1% (volume/volume). Potassium phosphate buffer (pH 7.4, final concentration 0.1 M), MgCl2 (final concentration 8.3 mM), EDTA (final concentration 1.67 mM), a test article stock solution, a CYP3A4 supersome and NADPH (final concentration 0.25 mM) were added to each well. The reaction was initiated by the addition of substrate (BFC, final concentration 30 µM) after a 10 min pre-incubation at 37° C. After 10 min incubation at 37° C., the reaction was terminated by the addition of 75 μL of acetonitrile:0.5 M Tris-base=4:1 (volume/volume). Thereafter, Fluorescent signal was measured using a fluorometer. BFC metabolite, 7-hydroxy-4-trifluoromethyl-coumarin, was measured using an excitation wavelength of 409 nm and an emission wavelength of 530 nm.

Wnt signaling = assay: TopFlash reporter gene bioassay in SW480 cells; assay type: cell-based; conditions: Homo sapiens, SW480, TopFlash reporter gene assay, inhibition of Wnt signaling; read-out: RGA, IC50 (μM) TopF
[2] = cell growth inhibition on AML cancer cells, MV-4-11, read-out: MV-4-11, GI50

T1 sequence (P08684 whole entry): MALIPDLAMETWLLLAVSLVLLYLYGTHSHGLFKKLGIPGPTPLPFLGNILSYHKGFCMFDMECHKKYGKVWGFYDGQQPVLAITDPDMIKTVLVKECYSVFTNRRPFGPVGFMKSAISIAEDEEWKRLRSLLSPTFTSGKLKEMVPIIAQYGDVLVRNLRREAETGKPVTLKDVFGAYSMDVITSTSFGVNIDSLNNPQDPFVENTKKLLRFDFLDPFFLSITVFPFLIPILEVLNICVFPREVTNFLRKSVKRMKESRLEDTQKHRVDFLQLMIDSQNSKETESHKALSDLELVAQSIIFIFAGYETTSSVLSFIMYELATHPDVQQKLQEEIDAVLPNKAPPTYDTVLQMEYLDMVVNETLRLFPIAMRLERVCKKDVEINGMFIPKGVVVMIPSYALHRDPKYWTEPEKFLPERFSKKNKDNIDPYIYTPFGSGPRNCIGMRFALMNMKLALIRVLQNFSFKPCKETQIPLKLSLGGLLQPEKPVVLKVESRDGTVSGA

Row | Structure (SMILES) | GI50 (MV-4-11 cells; [2]) | also measured
1 | C=CCN1CC(=O)N2[C@@H](Cc3ccc(O)cc3)C(=O)N(Cc3ccc(OC)c(Cl)c3)C[C@@H]2N1C(=O)NCc1ccccc1 [compound 11] | 1970 nM | 
2 | C=CCN1CC(=O)N2[C@@H](Cc3ccc(O)cc3)C(=O)N(Cc3csc4ccccc34)C[C@@H]2N1C(=O)NCc1ccccc1 [compound 3] | 180 nM | 
3 | C=CCN1CC(=O)N2[C@@H](Cc3ccc(O)cc3)C(=O)N(Cc3cccc(C(=O)NCCOC)c3)C[C@@H]2N1C(=O)NCc1ccccc1 [Compound B] |  | IC50 ([1]; human CYP3A4 supersome, substrate BFC, 10 min incubation at 37° C., read-out: IC50 values of Compounds against CYP3A4 activity): 34.6 µM; GI50 (MV-4-11 cells; MV-4-11 cells, 72 hours, read-out: GI50, cell growth inhibition of MV-4-11 AML cancer cells): 188 nM
4 | C=CCN1CC(=O)N2[C@@H](Cc3ccc(O)cc3)C(=O)N(Cc3cccc(OC)c3OC)C[C@@H]2N1C(=O)NCc1ccccc1 [compound 15] | 2140 nM | 
5 | C=CCN1CC(=O)N2[C@@H](Cc3ccc(O)cc3)C(=O)N(Cc3ccccc3N3CCCC3)C[C@@H]2N1C(=O)NCc1ccccc1 [compound 13] | 2010 nM | 
6 | C=CCN1CC(=O)N2[C@@H](Cc3ccc(O)cc3)C(=O)N(Cc3cccc(C(C)(C)C)c3OC)C[C@@H]2N1C(=O)NCc1ccccc1 [compound 16] | 630 nM | 
7 | C=CCN1CC(=O)N2[C@@H](Cc3ccc(O)cc3)C(=O)N(Cc3cccc(C(=O)NNC(=O)OC(C)(C)C)c3)C[C@@H]2N1C(=O)NCc1ccccc1 [compound 23] | 960 nM | 
8 | C=CCN1CC(=O)N2[C@@H](Cc3ccc(O)cc3)C(=O)N(Cc3ccccc3SC)C[C@@H]2N1C(=O)NCc1ccccc1 [compound 14] | 160 nM | 
9 | C=CCN1CC(=O)N2[C@@H](Cc3ccc(O)cc3)C(=O)N(Cc3cccc(C(N)=O)c3[N+](=O)[O-])C[C@@H]2N1C(=O)NCc1ccccc1 [compound 31] | 5750 nM | 
10 | C=CCN1CC(=O)N2[C@@H](Cc3ccc(O)cc3)C(=O)N(Cc3cccc(C(N)=O)c3)C[C@@H]2N1C(=O)NCc1ccccc1 [compound 17] | 360 nM | 
11 | C=CCN1CC(=O)N2[C@@H](Cc3ccc(O)cc3)C(=O)N(Cc3cccc(C(=O)NOC)c3)C[C@@H]2N1C(=O)NCc1ccccc1 [compound 18] | 360 nM | 
12 | C=CCN1CC(=O)N2[C@@H](Cc3ccc(O)cc3)C(=O)N(Cc3cccc(C(=O)NCCC)c3)C[C@@H]2N1C(=O)NCc1ccccc1 [compound 37] | 240 nM | 
13 | C=CCN1CC(=O)N2[C@@H](Cc3ccc(O)cc3)C(=O)N(Cc3ccc(CP(=O)(O)O)cc3)C[C@@H]2N1C(=O)NCc1ccccc1 [compound 32] | > 50000 nM | 
14 | C=CCN1CC(=O)N2[C@@H](Cc3ccc(O)cc3)C(=O)N(Cc3cccc(C(=O)Nc4cc[nH]n4)c3)C[C@@H]2N1C(=O)NCc1ccccc1 [compound 41] | 1560 nM | 
15 | C=CCN1CC(=O)N2[C@@H](Cc3ccc(O)cc3)C(=O)N(Cc3ccc(F)c(-c4cccnc4)c3)C[C@@H]2N1C(=O)NCc1ccccc1 [compound 25] | 240 nM | 
16 | C=CCN1CC(=O)N2[C@@H](Cc3ccc(O)cc3)C(=O)N(Cc3ccc(F)c(Br)c3)C[C@@H]2N1C(=O)NCc1ccccc1 [compound 21] | 300 nM | 
17 | C=CCN1CC(=O)N2[C@@H](Cc3ccc(O)cc3)C(=O)N(Cc3cccc(C(=O)NCCCOCCCC)c3)C[C@@H]2N1C(=O)NCc1ccccc1 [compound 33] | 650 nM | 
18 | C=CCN1CC(=O)N2[C@@H](Cc3ccc(O)cc3)C(=O)N(Cc3cccc(C(=O)N4CCCC4)c3)C[C@@H]2N1C(=O)NCc1ccccc1 [compound 27] | 1110 nM | 
19 | C=CCN1CC(=O)N2[C@@H](Cc3ccc(O)cc3)C(=O)N(Cc3cccc(C(=O)N4CCCCC4)c3)C[C@@H]2N1C(=O)NCc1ccccc1 [compound 26] | 780 nM | 

Further molecules by falling GI50 (MV-4-11 cells; [2]), results first:

Row | GI50 (MV-4-11 cells; [2]) | Structure (SMILES) | also measured
20 | 2990 nM | C=CCOc1ccc(CN2C[C@H]3N(C(=O)CN(CC=C)N3C(=O)NCc3ccccc3)[C@@H](Cc3ccc(O)cc3)C2=O)cc1 [compound 12] | 
21 | 2790 nM | C=CCN1CC(=O)N2[C@@H](Cc3ccc(O)cc3)C(=O)N(Cc3cccc(C(=O)N(C)C)n3)C[C@@H]2N1C(=O)NCc1ccccc1 [compound 45] | 
22 | 2240 nM | C=CCN1CC(=O)N2[C@@H](Cc3ccc(O)cc3)C(=O)N(Cc3ccc(OC)c(-c4ccncc4)c3)C[C@@H]2N1C(=O)NCc1ccccc1 [compound 20] | 
23 | 2030 nM | C=CCN1CC(=O)N2[C@@H](Cc3ccc(O)cc3)C(=O)N(Cc3cccc(C(=O)NN)c3)C[C@@H]2N1C(=O)NCc1ccccc1 [compound 24] | 
24 | 1350 nM | C=CCN1CC(=O)N2[C@@H](Cc3ccc(O)cc3)C(=O)N(Cc3ccccc3-n3cnnn3)C[C@@H]2N1C(=O)NCc1ccccc1 [compound 28] | 
25 | 1320 nM | C=CCN1CC(=O)N2[C@@H](Cc3ccc(O)cc3)C(=O)N(Cc3ccc(OC)cc3F)C[C@@H]2N1C(=O)NCc1ccccc1 [compound 10] | 
26 | 1250 nM | C=CCN1CC(=O)N2[C@@H](Cc3ccc(O)cc3)C(=O)N(Cc3cccc(Cl)c3N(C)C)C[C@@H]2N1C(=O)NCc1ccccc1 [compound 34] | 
27 | 1120 nM | C=CCN1CC(=O)N2[C@@H](Cc3ccc(O)cc3)C(=O)N(Cc3cccc(-c4ncc[nH]4)c3)C[C@@H]2N1C(=O)NCc1ccccc1 [compound 35] | 
28 | 960 nM | C=CCN1CC(=O)N2[C@@H](Cc3ccc(O)cc3)C(=O)N(Cc3cccc(C(=O)NCC4CCCCC4)c3)C[C@@H]2N1C(=O)NCc1ccccc1 [compound 39] | 
29 | 820 nM | C=CCN1CC(=O)N2[C@@H](Cc3ccc(O)cc3)C(=O)N(Cc3cccc(C(=O)N(C)C)c3)C[C@@H]2N1C(=O)NCc1ccccc1 [compound 30] | 
30 | 740 nM | C=CCN1CC(=O)N2[C@@H](Cc3ccc(O)cc3)C(=O)N(Cc3cccc(-c4cccnc4OC)c3)C[C@@H]2N1C(=O)NCc1ccccc1 [compound 22] | 
31 | 640 nM | C=CCN1CC(=O)N2[C@@H](Cc3ccc(O)cc3)C(=O)N(Cc3cccc(C(=O)OCC)n3)C[C@@H]2N1C(=O)NCc1ccccc1 [compound 42] | 
32 | 600 nM | C=CCN1CC(=O)N2[C@@H](Cc3ccc(O)cc3)C(=O)N(Cc3cccc4c3OC(F)(F)O4)C[C@@H]2N1C(=O)NCc1ccccc1 [compound 2] | 
33 | 550 nM | C=CCN1CC(=O)N2[C@@H](Cc3ccc(O)cc3)C(=O)N(Cc3cccc(C(=O)NC)n3)C[C@@H]2N1C(=O)NCc1ccccc1 [compound 44] | 
34 | 450 nM | C=CCN1CC(=O)N2[C@@H](Cc3ccc(O)cc3)C(=O)N(Cc3cccc(C(=O)NCCO)c3)C[C@@H]2N1C(=O)NCc1ccccc1 [compound 19] | 
35 | 390 nM | C=CCN1CC(=O)N2[C@@H](Cc3ccc(O)cc3)C(=O)N(Cc3cccc(C(=O)NC)c3)C[C@@H]2N1C(=O)NCc1ccccc1 [compound 29] | 
36 | 310 nM | C=CCN1CC(=O)N2[C@@H](Cc3ccc(O)cc3)C(=O)N(Cc3cccc(C(N)=O)n3)C[C@@H]2N1C(=O)NCc1ccccc1 [compound 43] | 
37 | 270 nM | C=CCN1CC(=O)N2[C@@H](Cc3ccc(O)cc3)C(=O)N(Cc3cccc(C(=O)NCC4CC4)c3)C[C@@H]2N1C(=O)NCc1ccccc1 [compound 40] | 
38 | 190 nM | C=CCN1CC(=O)N2[C@@H](Cc3ccc(O)cc3)C(=O)N(Cc3cccc4c3ncn4CC(N)=O)C[C@@H]2N1C(=O)NCc1ccccc1 [compound 1] | 
39 | 180 nM | C=CCN1CC(=O)N2[C@@H](Cc3ccc(O)cc3)C(=O)N(Cc3cccc(C(=O)NCCOC)c3)C[C@@H]2N1C(=O)NCc1ccccc1 [compound 38] | IC50 ([1]; P450 CYP3A4 inhibitory activity screening, fluorescent assay, read-out: CYP3A4 inhibition, IC50 (μM) fluorescent assay): 34.6 µM
40 | 50 nM | C=CCN1CC(=O)N2[C@@H](Cc3ccc(O)cc3)C(=O)N(Cc3cccc(NC(=O)OC)c3)C[C@@H]2N1C(=O)NCc1ccccc1 [compound 5] | IC50 (Wnt signaling): 0.16 ± 0.08 µM
41 | 40 nM | C=CCN1CC(=O)N2[C@@H](Cc3ccc(O)cc3)C(=O)N(Cc3cccc4c(C(C)=O)c[nH]c34)C[C@@H]2N1C(=O)NCc1ccccc1 [compound 6] | 
